These are literature values, as cited in patent publication US20140348931A1, “SUSTAINED-RELEASE TOPIRAMATE FORMULATIONS” (CADILA HEALTHCARE LIMITED, priority 2013, published 2014).

As a reminder, the half-life is the time in which the quantity being followed falls by half.

The conditions of the data set: in vivo.

`CC1(C)OC2[C@@H](CO[C@@]3(COS(N)(=O)=O)OC(C)(C)O[C@@H]23)O1` (stereo partly drawn) [topiramate, 2, 3: 4, 5 Di-O-isopropylidene-β-D-fructopyranose sulfamate]: the half-life is 21 h.
